Experimental data reported in patent US6737383B1, “Herbicidal oxadiazolidines” (priority 1999, dated 2004).

Tests used:
bedstraw = assay: Test B pre/postemergence bedstraw; assay type: in vivo, Galium aparine; details: for Plant response rating, Bedstraw: scale of 0 to 10 where 0 is no effect and 10 is complete control
Procedure, shortened: (§1)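 Herbicidal effect was estimated by eye on a ten-point control scale after plants spent twelve to sixteen days in a greenhouse following soil or foliar treatment. Foliar sprays targeted plants at one to four leaves; all doses were formulated in a non-phytotoxic solvent with surfactant.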

blackgrass = assay: Test B pre/postemergence blackgrass; assay type: in vivo, Alopecurus myosuroides
Procedure, shortened: as §1

surinam grass = assay: Test B pre/postemergence surinam grass; assay type: in vivo, Brachiaria decumbens
Procedure, shortened: as §1

cocklebur = assay: Test B pre/postemergence cocklebur; assay type: in vivo, Xanthium strumarium
Procedure, shortened: as §1

corn = assay: Test B pre/postemergence corn; assay type: in vivo, Zea mays
Procedure, shortened: as §1

crabgrass = assay: Test B pre/postemergence crabgrass; assay type: in vivo, Digitaria sanguinalis
Procedure, shortened: as §1

soybean = assay: Test B pre/postemergence soybean; assay type: in vivo, Glycine max; details: for Plant response rating, Soybean: scale of 0 to 10 where 0 is no effect and 10 is complete control
Procedure, shortened: as §1

sugar beet = assay: Test B pre/postemergence sugar beet; assay type: in vivo, Beta vulgaris; details: for Plant response rating, Sugarbeets: scale of 0 to 10 where 0 is no effect and 10 is complete control
Procedure, shortened: as §1

velvetleaf = assay: Test B pre/postemergence velvetleaf; assay type: in vivo, Abutilon theophrasti; details: for Plant response rating, Velvetleaf: scale of 0 to 10 where 0 is no effect and 10 is complete control
Procedure, shortened: as §1

wheat = assay: Test B pre/postemergence wheat; assay type: in vivo, Triticum aestivum; details: for Plant response rating, Wheat: scale of 0 to 10 where 0 is no effect and 10 is complete control
Procedure, shortened: as §1

wild oat = assay: Test B pre/postemergence wild oat; assay type: in vivo, Avena fatua; details: for Plant response rating, Wild oats: scale of 0 to 10 where 0 is no effect and 10 is complete control
Procedure, shortened: as §1

purple nutsedge = assay: Test B pre/postemergence purple nutsedge; assay type: in vivo, Cyperus rotundus; details: for Plant response rating, Nutsedge: scale of 0 to 10 where 0 is no effect and 10 is complete control
Procedure, shortened: as §1

rice = assay: Test B flood test rice; assay type: in vivo, Oryza sativa
Procedure, shortened: (§2)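 Each value is a visual injury score relative to controls, with 10 meaning complete control and 0 no effect. Evaluation took place twelve to sixteen days after the 2-leaf-stage plants were treated and kept in the greenhouse.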

smallflower flatsedge = assay: Test B flood test smallflower flatsedge; assay type: in vivo, Cyperus difformis
Procedure, shortened: as §2

duck salad = assay: Test B flood test duck salad; assay type: in vivo, Heteranthera limosa
Procedure, shortened: as §2

bamyardgrass = assay: Test B flood test barnyardgrass; assay type: in vivo, Echinochloa crus-galli
Procedure, shortened: as §2

[1] = Preemergence, Rate 250 g/ha, scale 0 to 10, 0 is no effect, 10 is complete control
[2] = Preemergence, Rate 500 g/ha, scale 0 to 10, 0 is no effect, 10 is complete control
[3] = Rate 62 g/ha, Postemergence, scale 0 to 10 (0 no effect, 10 complete control)
[4] = Rate 125 g/ha, Postemergence, scale 0 to 10, 0 is no effect, 10 is complete control
[5] = Postemergence, Rate 250 g/ha, scale 0 to 10
[6] = Postemergence, Rate 500 g/ha, scale of 0 to 10 where 0 is no effect and 10 is complete control
[7] = Preemergence, Rate 62 g/ha, scale of 0 to 10 where 0 is no effect and 10 is complete control
[8] = Preemergence, Rate 125 g/ha, scale of 0 to 10 where 0 is no effect and 10 is complete control
[9] = Rate 62 g/ha, flood test species, Pre-emergence, visual evaluation after twelve to sixteen days
[10] = Rate 125 g/ha, under heading Pre-emergence, flood test species, visual evaluation after twelve to sixteen days
[11] = Rate 250 g/ha, Pre-emergence (flood test species), scale 0 to 10, 0 is no effect, 10 is complete control
[12] = Rate 500 g/ha, Pre-emergence, flood test species, scale 0 to 10 (0 no effect, 10 complete control)

SMILES: CC(C)N(C(=O)n1oc(=O)n(COC(=O)C(C)(C)C)c1=O)c1ccc(F)cc1 [Compound 462]
- Plant response rating, Bedstraw (bedstraw; Preemergence, Rate 62 g/ha): 0
- Plant response rating, Bedstraw (bedstraw; Preemergence, Rate 125 g/ha): 0
- Bedstraw plant response rating (bedstraw; [1]): 0
- Bedstraw plant response rating (bedstraw; [2]): 0
- Bedstraw plant response rating (bedstraw; [3]): 0
- Bedstraw plant response rating (bedstraw; [4]): 0
- Blackgrass plant response rating (blackgrass; [5]): 0
- Blackgrass plant response rating (blackgrass; [6]): 0
- Plant response rating, Blackgrass (blackgrass; [7]): 0
- Plant response rating, Blackgrass (blackgrass; [8]): 0
- Blackgrass plant response rating (blackgrass; [1]): 0
- Blackgrass plant response rating (blackgrass; [2]): 0
- Blackgrass plant response rating (blackgrass; [3]): 0
- Blackgrass plant response rating (blackgrass; [4]): 0
- B. signalgrass plant response rating (surinam grass; Postemergence, Rate 250 g/ha, scale 0 to 10, 0 no effect, 10 complete control): 0
- B. signalgrass plant response rating (surinam grass; [6]): 0
- Plant response rating, B. signalgrass (surinam grass; [7]): 0
- Plant response rating, B. signalgrass (surinam grass; [8]): 0
- B. signalgrass plant response rating (surinam grass; [1]): 0
- B. signalgrass plant response rating (surinam grass; [2]): 0
- B. signalgrass plant response rating (surinam grass; [3]): 0
- B. signalgrass plant response rating (surinam grass; [4]): 0
- Cocklebur plant response rating (cocklebur; [5]): 0
- Cocklebur plant response rating (cocklebur; [6]): 0
- Plant response rating, Cocklebur (cocklebur; [7]): 0
- Plant response rating, Cocklebur (cocklebur; [8]): 0
- Cocklebur plant response rating (cocklebur; [1]): 0
- Cocklebur plant response rating (cocklebur; [2]): 0
- Cocklebur plant response rating (cocklebur; [3]): 0
- Cocklebur plant response rating (cocklebur; [4]): 0
- Corn plant response rating (corn; [5]): 0
- Corn plant response rating (corn; [6]): 0
- Plant response rating, Corn (corn; [7]): 0
- Plant response rating, Corn (corn; [8]): 0
- Corn plant response rating (corn; [1]): 0
- Corn plant response rating (corn; [2]): 0
- Corn plant response rating (corn; [3]): 0
- Corn plant response rating (corn; [4]): 0
- Crabgrass plant response rating (crabgrass; [5]): 0
- Crabgrass plant response rating (crabgrass; [6]): 0
- Plant response rating, Crabgrass (crabgrass; [7]): 0
- Plant response rating, Crabgrass (crabgrass; [8]): 0
- Crabgrass plant response rating (crabgrass; [1]): 0
- Crabgrass plant response rating (crabgrass; [2]): 0
- Crabgrass plant response rating (crabgrass; [3]): 0
- Crabgrass plant response rating (crabgrass; [4]): 0
- Plant response rating, Soybean (soybean; Preemergence, Rate 62 g/ha): 0
- Plant response rating, Soybean (soybean; Preemergence, Rate 125 g/ha): 0
- Soybean plant response rating (soybean; [1]): 0
- Soybean plant response rating (soybean; [2]): 0
- Soybean plant response rating (soybean; [3]): 0
- Soybean plant response rating (soybean; [4]): 1
- Sugarbeets plant response rating (sugar beet; [5]): 0
- Plant response rating, Sugarbeets (sugar beet; Preemergence, Rate 62 g/ha): 0
- Plant response rating, Sugarbeets (sugar beet; Preemergence, Rate 125 g/ha): 0
- Sugarbeets plant response rating (sugar beet; [1]): 0
- Sugarbeets plant response rating (sugar beet; [2]): 0
- Sugarbeets plant response rating (sugar beet; [3]): 0
- Sugarbeets plant response rating (sugar beet; [4]): 0
- Velvetleaf plant response rating (velvetleaf; [5]): 0
- Plant response rating, Velvetleaf (velvetleaf; Preemergence, Rate 62 g/ha): 0
- Plant response rating, Velvetleaf (velvetleaf; Preemergence, Rate 125 g/ha): 0
- Velvetleaf plant response rating (velvetleaf; [1]): 0
- Velvetleaf plant response rating (velvetleaf; [2]): 0
- Velvetleaf plant response rating (velvetleaf; [3]): 0
- Velvetleaf plant response rating (velvetleaf; [4]): 0
- Wheat plant response rating (wheat; [5]): 0
- Plant response rating, Wheat (wheat; Preemergence, Rate 62 g/ha): 0
- Plant response rating, Wheat (wheat; Preemergence, Rate 125 g/ha): 0
- Wheat plant response rating (wheat; [1]): 0
- Wheat plant response rating (wheat; [2]): 0
- Wheat plant response rating (wheat; [3]): 0
- Wheat plant response rating (wheat; [4]): 0
- Wild oats plant response rating (wild oat; [5]): 0
- Plant response rating, Wild oats (wild oat; Preemergence, Rate 62 g/ha): 0
- Plant response rating, Wild oats (wild oat; Preemergence, Rate 125 g/ha): 0
- Wild oats plant response rating (wild oat; [1]): 0
- Wild oats plant response rating (wild oat; [2]): 0
- Wild oats plant response rating (wild oat; [3]): 0
- Wild oats plant response rating (wild oat; [4]): 0
- Nutsedge plant response rating (purple nutsedge; [5]): 0
- Plant response rating, Nutsedge (purple nutsedge; Preemergence, Rate 62 g/ha): 0
- Plant response rating, Nutsedge (purple nutsedge; Preemergence, Rate 125 g/ha): 0
- Nutsedge plant response rating (purple nutsedge; [1]): 0
- Nutsedge plant response rating (purple nutsedge; [2]): 0
- Nutsedge plant response rating (purple nutsedge; [3]): 0
- Nutsedge plant response rating (purple nutsedge; [4]): 0
- Plant response rating, Rice (0 to 10 scale, 0 is no effect, 10 is complete control) (rice; [9]): 0
- Rice plant response rating (0 to 10 scale, 0 is no effect, 10 is complete control) (rice; [10]): 0
- Rice plant response rating (rice; [11]): 0
- Rice plant response rating (rice; [12]): 0
- Plant response rating, S. Flatsedge (0 to 10 scale, 0 is no effect, 10 is complete control) (smallflower flatsedge; [9]): 0
- S. Flatsedge plant response rating (0 to 10 scale, 0 is no effect, 10 is complete control) (smallflower flatsedge; [10]): 0
- S. Flatsedge plant response rating (smallflower flatsedge; [11]): 0
- S. Flatsedge plant response rating (smallflower flatsedge; [12]): 0
- Plant response rating, Ducksalad (0 to 10 scale, 0 is no effect, 10 is complete control) (duck salad; [9]): 0
- Ducksalad plant response rating (0 to 10 scale, 0 is no effect, 10 is complete control) (duck salad; [10]): 0
- Ducksalad plant response rating (duck salad; [11]): 0
- Ducksalad plant response rating (duck salad; [12]): 0
- Plant response rating, Barnyardgrass (0 to 10 scale, 0 is no effect, 10 is complete control) (bamyardgrass; [9]): 0
- Barnyardgrass plant response rating (0 to 10 scale, 0 is no effect, 10 is complete control) (bamyardgrass; [10]): 0
- Barnyardgrass plant response rating (bamyardgrass; [11]): 0
- Barnyardgrass plant response rating (bamyardgrass; [12]): 0
